Reference: ChEMBL document CHEMBL1201862, “PubChem BioAssay data set” (2004)
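Grown in 96-well plates, cells were treated for 48 hours with each compound at five concentrations. Insufficient inhibition: endpoint recorded as highest concentration tested. Here, GI50 denotes the concentration required for 50% inhibition of growth.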 Active and inactive are the calls of the source. Cut-off read from the data, not from the text of the source: active = GI50 up to about 1.1 µM and inactive = higher.

What was measured:
Assay in all cases: growth of human tumour cells (NCI), 48 h
SW-620 = tested on: SW-620
SF-268 = tested on: SF-268
SN12C = tested on: SN12C
HOP-62 = tested on: HOP-62
UO-31 = tested on: UO-31
OVCAR-4 = tested on: OVCAR-4
SNB-19 = tested on: SNB-19
SK-MEL-2 = tested on: SK-MEL-2
OVCAR-8 = tested on: OVCAR-8
OVCAR-5 = tested on: OVCAR-5
IGROV-1 = tested on: IGROV-1
SK-MEL-28 = tested on: SK-MEL-28
HT-29 = tested on: HT-29
OVCAR-3 = tested on: OVCAR-3
NCI-H226 = tested on: NCI-H226
HCC 2998 = tested on: HCC 2998

Compound | GI50 (SW-620) | GI50 (SF-268) | GI50 (SN12C) | GI50 (HOP-62) | GI50 (UO-31) | GI50 (OVCAR-4) | GI50 (SNB-19) | GI50 (SK-MEL-2) | GI50 (OVCAR-8) | GI50 (OVCAR-5) | GI50 (IGROV-1) | GI50 (SK-MEL-28) | GI50 (HT-29) | GI50 (OVCAR-3) | GI50 (NCI-H226) | GI50 (HCC 2998)
CCOc1ccc(/N=C\c2cc(OC)c(OC)c(OC)c2)cc1 | 14.9 µM (inactive) | > 100 µM (inactive) | > 100 µM (inactive) | > 100 µM (inactive) | > 100 µM (inactive) | > 100 µM (inactive) | > 100 µM (inactive) | > 100 µM (inactive) | > 100 µM (inactive) | > 100 µM (inactive) | > 100 µM (inactive) | > 100 µM (inactive) | > 100 µM (inactive) | > 100 µM (inactive) | – | –
C[C@]12CCC3[C@@H](CC[C@@H]4c5nonc5CC[C@]34C)C1CCC(=O)N2 (stereo partly drawn) | > 100 µM (inactive) | > 100 µM (inactive) | > 100 µM (inactive) | > 100 µM (inactive) | > 100 µM (inactive) | > 100 µM (inactive) | > 100 µM (inactive) | 0.356 µM (active) | > 100 µM (inactive) | > 100 µM (inactive) | > 100 µM (inactive) | > 100 µM (inactive) | > 100 µM (inactive) | > 100 µM (inactive) | > 100 µM (inactive) | –
COc1cc(/C=C/C(=O)c2sc(Nc3ccccc3)nc2C)ccc1O | > 100 µM (inactive) | 49.2 µM (inactive) | 59.6 µM (inactive) | 40.7 µM (inactive) | 43.6 µM (inactive) | – | > 100 µM (inactive) | > 100 µM (inactive) | 96.8 µM (inactive) | > 100 µM (inactive) | > 100 µM (inactive) | > 100 µM (inactive) | 97.9 µM (inactive) | 33.5 µM (inactive) | – | > 100 µM (inactive)
O=C(N/C(=C\c1ccc(F)cc1)c1nc2ccccc2[nH]1)c1ccccc1 | > 100 µM (inactive) | > 100 µM (inactive) | > 100 µM (inactive) | – | > 100 µM (inactive) | > 100 µM (inactive) | > 100 µM (inactive) | > 100 µM (inactive) | > 100 µM (inactive) | > 100 µM (inactive) | > 100 µM (inactive) | > 100 µM (inactive) | > 100 µM (inactive) | > 100 µM (inactive) | > 100 µM (inactive) | –
COc1ccc(C2S/C(=C\c3cccc([N+](=O)[O-])c3)C(=O)N2NC(=O)Cc2ccccc2)cc1 (stereo not drawn) | > 100 µM (inactive) | > 100 µM (inactive) | > 100 µM (inactive) | > 100 µM (inactive) | > 100 µM (inactive) | > 100 µM (inactive) | – | > 100 µM (inactive) | > 100 µM (inactive) | > 100 µM (inactive) | > 100 µM (inactive) | > 100 µM (inactive) | > 100 µM (inactive) | – | > 100 µM (inactive) | –
COc1ccc(C(=O)C(C(=O)C(=O)Nc2nccs2)c2ccc(OC)cc2)cc1 (stereo not drawn) | > 100 µM (inactive) | > 100 µM (inactive) | > 100 µM (inactive) | – | > 100 µM (inactive) | > 10 µM (inactive) | > 100 µM (inactive) | > 100 µM (inactive) | > 100 µM (inactive) | > 100 µM (inactive) | > 100 µM (inactive) | > 100 µM (inactive) | > 100 µM (inactive) | > 100 µM (inactive) | – | –
COc1cc(C(=O)C/C(CCC(=O)Nc2ccccc2[N+](=O)[O-])=N\NC(N)=O)ccc1O | > 100 µM (inactive) | > 100 µM (inactive) | > 100 µM (inactive) | > 100 µM (inactive) | > 100 µM (inactive) | – | > 100 µM (inactive) | > 100 µM (inactive) | > 100 µM (inactive) | > 100 µM (inactive) | > 100 µM (inactive) | > 100 µM (inactive) | > 100 µM (inactive) | > 100 µM (inactive) | > 100 µM (inactive) | > 100 µM (inactive)
